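96-well plates; 48 h exposure; 5 concentrations. Endpoints by linear interpolation between flanking doses. Not reached: highest tested concentration assigned. The concentration for 50% growth inhibition is given as GI50. TGI: total growth inhibition.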
What was measured:
Experiment in all cases: NCI tumour cell line growth inhibition, 48 h
T-47D breast = tested on: T-47D breast
HT29 colon = tested on: HT29 colon
OVCAR-5 ovarian = tested on: OVCAR-5 ovarian
SF-268 CNS = tested on: SF-268 CNS
NCI/ADR-RES ovarian = tested on: NCI/ADR-RES ovarian
SN12C renal = tested on: SN12C renal
A498 renal = tested on: A498 renal
SW-620 colon = tested on: SW-620 colon
HCC-2998 colon = tested on: HCC-2998 colon
PC-3 prostate = tested on: PC-3 prostate
MDA-N = tested on: MDA-N
NCI-H226 lung = tested on: NCI-H226 lung
HOP-62 NSCLC = tested on: HOP-62 NSCLC
NCI-H522 lung = tested on: NCI-H522 lung

SMILES	TGI (T-47D breast) [µM]	TGI (HT29 colon) [µM]	TGI (OVCAR-5 ovarian) [µM]	TGI (SF-268 CNS) [µM]	TGI (NCI/ADR-RES ovarian) [µM]	TGI (SN12C renal) [µM]	TGI (A498 renal) [µM]	TGI (SW-620 colon) [µM]	TGI (HCC-2998 colon) [µM]	TGI (PC-3 prostate) [µM]	TGI (MDA-N) [µM]	TGI (NCI-H226 lung) [µM]	TGI (HOP-62 NSCLC) [µM]	TGI (NCI-H522 lung) [µM]	GI50 (T-47D breast) [nM]	GI50 (NCI/ADR-RES ovarian) [µM]	GI50 (PC-3 prostate) [µM]	GI50 (MDA-N) [µM]	GI50 (NCI-H522 lung) [nM]
O=C1N(CN2CCOCC2)CN(CN2CCOCC2)C(=O)N1Cc1ccccc1	77.1	39.9	> 100	53.1	61.7	48.6	> 100	54.9	> 100	> 100	33.3	> 100	> 100	29					
c1ccc2c(c1)CCN1CCc3c([nH]c4ccccc34)C21 (stereo unspecified)	> 100	99.3	> 100	> 100	56.9	> 100	54.5	> 100	34	98.5	73.8	97.5	> 100	66					
COc1ccc(/C=C(\C(=O)OCC(C)C)c2ccc(OC)c(OC)c2)cc1OC	> 100	> 100	> 100	> 100	> 100	> 100	> 100	> 100	> 100	> 100	> 100	> 100	> 100	> 100					
CC(=O)O[C@H]1[C@H](OC(C)=O)[C@@H](CN=[N+]=[N-])OCO[C@@H]1CN=[N+]=[N-]	> 100	> 100	> 100	> 100	> 100	> 100	> 100	> 100	> 100	> 100	> 100	> 100	> 100	> 100					
COCC(=O)OC1CCn2c1nc1c2C(=O)C(C)=C(NC(C)=O)C1=N (stereo unspecified)	6.98	> 47.4	25.3	10.3	17.6	13.4	32.9	6.12	27.7	9.01	3.23	33.2	29.2	21.5					
CCCN1CN(c2ccccc2)C2(CCN(CCCC(=O)c3ccc(F)cc3)CC2)C1=O	35	7.02	20.2	23.8	17.6	15.5	5.67	20.4	20.8	27.6	23	22.3	8.66	43.6					
CC1(C)O[C@H]2[C@@H]3N=C(c4ccccc4)O[C@@H]3C=C[C@H]2O1	> 100	> 100	> 100	33.4	> 100	> 100	> 100	> 100	> 100	> 100	> 100	> 100	> 100	17.4					
O=Cc1[nH]c(=O)[nH]c(=O)c1CCl	> 100	> 100	> 100	> 100	> 100	> 100	> 100	> 100	> 100	> 100	> 100	> 100	> 100	> 100					
C[N+](C)(C)C1(C(=O)[O-])CC1	> 100	> 100	> 100	> 100	> 100	> 100	> 100	> 100	> 100	> 100	> 100	> 100	> 100	> 100					
CCOC(=O)/C=C(\C(=O)OCC)n1cnc2c(N)ncnc21	14	23.1	14	37.6	37	10.8	17.7	8.49	30.2	26.1	29.3	13	39.8	6.09					
COc1ccc(N2CCN(Cc3c(C(C)=O)[n+](=O)c4ccccc4n3[O-])CC2)cc1	> 100	> 100	> 100	> 100	> 100	> 100	> 100	> 100	> 100	> 100	> 100	> 100	> 100	> 100					
COC1=CC(=O)c2c(O)ccc(O)c2C1=O	41.3	4.41	35.7	17.9	60.2	7.55	31.6	17.7	9.33	41.4	1.9	43.8	10.9	26					
N#CC(C#N)=Cc1ccc(C=C2SC3=C(SCCS3)S2)s1	> 100	> 100	35.2	> 100	42.8	> 100	42.7	> 100	> 100	> 100	3.03	9.73	> 100	> 100					
CC(=O)O[C@H]1[C@@H](OC2CCCC2(c2ccccc2)c2ccccc2)O[N+]([O-])=C[C@@]12COCc1cc3c(cc12)OCO3 (stereo partly specified)	> 31.2	9.11	> 51.5	14.4	14.9	> 39.6	7.67	> 100	11.9	19.3	> 100	15.8	7.67	5.35					
CC(=O)N1C(C(=O)NNc2ccccc2)CSC1c1ccccc1 (stereo unspecified)	> 100	> 100	> 100	> 100	> 100	> 100	> 100	> 100	> 100	> 100	> 100	> 100	> 100	> 100					
CC(=O)N1CC[N+](C)(CCCCN2c3ccccc3Sc3cc(N=[N+]=[N-])ccc32)CC1	> 100	> 100	> 100	> 100	> 100	> 100	> 100	> 100	> 100	> 100	> 100	> 100	> 100	> 100					
COc1cc(-c2c3c([nH]c(=O)c2C#N)-c2cc([N+](=O)[O-])ccc2CCC3)cc(OC)c1OC	> 100	> 100	69.1	> 100	> 100	46.7	66.9	> 100	46.1	> 100	55	89	92.2	59					
O=C(Nc1nncs1)NS(=O)(=O)n1cnc2ccccc21	> 100	> 100	> 100	> 100	> 100	> 100	> 100	> 100	> 100	> 100	> 100	> 100	> 100	> 100					
COc1cc(/C=C/c2sc3ccccc3[n+]2C)ccc1N(C)C	10.8	32.4	40.5	33.6	> 100	25.5	> 100	25.8	53.4	32.3	22.2	50.6	32.8	15.8	1360	> 100	12.8	7.11	467
OCCCCn1cc(Cn2ncc3c(SCc4ccccc4)ncnc32)nn1	> 100	> 100	> 100	> 100	> 100	> 100	> 100	90.9	> 100	> 100	39.2	> 100	> 100	> 100					
CC(C)CCNC(=O)c1ccc(CNC(=O)/C=C/c2csc(-c3ccccc3)n2)cc1	> 100	> 100	> 100	> 100	> 100	> 100	> 100	> 100	> 100	> 100	> 100	> 100	37.4	> 100					
COc1ccc(-c2oc3cc(OC)c(OC)c(OC)c3c(=O)c2OC)cc1OC	> 100	> 100	> 100	> 100	> 100	> 100	> 100	> 100	> 100	> 100	> 100	> 100	> 100	> 100					
O=C(O)CSc1nnc(CCCCCCCCc2nnc(SCC(=O)O)o2)o1	> 100	> 100	> 100	> 100	> 100	> 100	> 100	> 100	> 100	> 100	> 100	> 100	> 100	> 100					
O=C1C=CC[C@H](/C=C/C[C@@H](O)C[C@H](O)/C=C/c2ccccc2)O1	33.3	23.5	29.5	37.7	65.3	26.9	27	27.4	18.6	27.8	24.9	28.7	30.9	18					

From PubChem BioAssay (NCI)
